Test system: gPSCs
Test: Upstream/downstream ROCK pathway inhibitors used in the culture conditions in place of a ROCK inhibitor
Type: cell-based
Excerpt: As used herein, inhibiting ROCK can mean to reduce the activity, function or expression of at least one of ROCK1 or ROCK2. […] In general, ROCK phosphorylates LIM kinase and myosin light chain (MLC) phosphatase after being activated through binding of GTP-bound Rho. One embodiment of the present invention thus involves blocking the upstream pathway of ROCK1 and/or ROCK2, for example GTP-bound Rho, such that ROCK1 and/or ROCK2 is not activated or its activity is reduced over untreated cells. Other upstream effectors include but are not limited to, integrins, growth factor receptors, including but not limited to, TGF-beta and EGFR, cadherins, G protein coupled receptors and the like. Another embodiment of the present invention thus involves blocking the activity, function or expression of downstream effector molecules of activated ROCK1 and/or ROCK2 such that ROCK1 and/or ROCK2 cannot propagate any signal or can only propagate a reduced signal over untreated cells. Downstream effectors include but are not limited to, Myosin phosphatase-targeting protein (MYPT), vimentin, LIMK, Myosin light chain kinase, NHE1, cofilin, Myosin II and the like. […] Upstream or downstream inhibition of ROCK, in place of direct ROCK inhibition and in conjunction with the other culture conditions described and required herein, may or may not generate conditionally immortalized gPSCs.

Row | Compound | Effect on cells in culture
1 | Cc1ccc2c(c1)C(=O)C1(O)CCN(c3ccccc3)C1=N2 (centres unmarked) [blebbistatin] | allow the cells to bypass differentiation and allow proliferation in vitro
2 | C3 transferase | allow the cells to bypass differentiation and allow proliferation in vitro
